Key:
Assay type in all cases: in vivo
[1] = system: Echinochloa crusgalli; assay: Post-emergence test experiment, Echinochloa crusgalli; settings: 1000 g a.i./ha, 3 weeks in greenhouse, fresh weight inhibition
Outline: (§1)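 Read-out is fresh weight inhibition rate, taken 3 weeks after spraying. Treatment was applied to plants at the 2-3 leaf stage, grown from seed under 0.5-2 cm soil in greenhouse pots. Spray solution contained acetone, tween-80 and methyl oleate emulsible concentrate at 1.5 liters per hectare.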

[2] = system: Digitaria sanguinalis; assay: Post-emergence test experiment, Digitaria sanguinalis; settings: 1000 g a.i./ha, 3 weeks in greenhouse, fresh weight inhibition
Outline: as §1

[3] = system: Monocotyledonous and dicotyledonous weed seeds and main crop seeds; assay: Post-emergence test experiment, other weeds and crops (Table 4, 1000 g a.i./ha); settings: 3 weeks in greenhouse, fresh weight inhibition
Outline: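 Weed and crop seeds (wheat, corn, rice, soybean, cotton, oilseed, millet, sorghum) sown in soil pots in a greenhouse and sprayed at 2-3 leaf stage, 2 weeks after sowing. Compound in acetone/tween-80 with methyl oleate concentrate (1.5 L/ha) as synergist. Effect recorded as fresh-weight growth inhibition rate.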

| Structure (SMILES) | Activity level (growth inhibition rate), Echinochloa crusgalli [1] | Activity level (growth inhibition rate), Digitaria sanguinalis [2] | Activity level (growth inhibition rate), Abutilon theophrasti Medic. [3] | Activity level (growth inhibition rate), Galium aparine [3] | Activity level (growth inhibition rate), Monochoria Vaginalis [3] |
| --- | --- | --- | --- | --- | --- |
| CC(Oc1nc(F)c(Cl)c(N)c1Cl)C(=O)OCC(F)(F)C(F)(F)F (centres unmarked) [Compound 2-282] | 5 (Level 5: the growth inhibition rate is greater than 85%) | 5 (Level 5: the growth inhibition rate is greater than 85%) | 5 (Level 5: the growth inhibition rate is greater than 85%) | 5 (Level 5: the growth inhibition rate is greater than 85%) | 5 (Level 5: the growth inhibition rate is greater than 85%) |
| CCCCCCCSC(=O)[C@@H](C)Oc1nc(F)c(Cl)c(N)c1Cl [Compound 2-122] | 5 (Level 5: the growth inhibition rate is greater than 85%) | 5 (Level 5: the growth inhibition rate is greater than 85%) | 5 (Level 5: the growth inhibition rate is greater than 85%) | 5 (Level 5: the growth inhibition rate is greater than 85%) | 5 (Level 5: the growth inhibition rate is greater than 85%) |
| CCC(CC)SC(=O)[C@@H](C)Oc1nc(F)c(Cl)c(N)c1Cl [Compound 2-98] | 5 (Level 5: the growth inhibition rate is greater than 85%) | 5 (Level 5: the growth inhibition rate is greater than 85%) | 5 (Level 5: the growth inhibition rate is greater than 85%) | 5 (Level 5: the growth inhibition rate is greater than 85%) | 5 (Level 5: the growth inhibition rate is greater than 85%) |
| CC(Oc1nc(F)c(Cl)c(N)c1Cl)C(=O)SCc1cccc(Cl)c1 (centres unmarked) [Compound 2-317] | 5 (Level 5: the growth inhibition rate is greater than 85%) | 5 (Level 5: the growth inhibition rate is greater than 85%) | 5 (Level 5: the growth inhibition rate is greater than 85%) | 5 (Level 5: the growth inhibition rate is greater than 85%) | 5 (Level 5: the growth inhibition rate is greater than 85%) |
| Cc1cccc(CSC(=O)C(C)Oc2nc(F)c(Cl)c(N)c2Cl)c1 (centres unmarked) [Compound 2-305] | 5 (Level 5: the growth inhibition rate is greater than 85%) | 5 (Level 5: the growth inhibition rate is greater than 85%) | 5 (Level 5: the growth inhibition rate is greater than 85%) | 5 (Level 5: the growth inhibition rate is greater than 85%) | 5 (Level 5: the growth inhibition rate is greater than 85%) |
| CC(Oc1nc(F)c(Cl)c(N)c1Cl)C(=O)SCc1ccccc1F (centres unmarked) [Compound 2-309] | 5 (Level 5: the growth inhibition rate is greater than 85%) | 5 (Level 5: the growth inhibition rate is greater than 85%) | 5 (Level 5: the growth inhibition rate is greater than 85%) | 5 (Level 5: the growth inhibition rate is greater than 85%) | 5 (Level 5: the growth inhibition rate is greater than 85%) |
| CC(Oc1nc(F)c(Cl)c(N)c1Cl)C(=O)SCc1cccc(Br)c1 (centres unmarked) [Compound 2-323] | 5 (Level 5: the growth inhibition rate is greater than 85%) | 5 (Level 5: the growth inhibition rate is greater than 85%) | 5 (Level 5: the growth inhibition rate is greater than 85%) | 5 (Level 5: the growth inhibition rate is greater than 85%) | 5 (Level 5: the growth inhibition rate is greater than 85%) |
